{"source": "patent US11666584B2", "about": "“Steroidal hormones for the treatment and prevention of wave burst arrhythmia” (ASSISTANCE PUBLIQUE—HOPITAUX DE PARIS, priority 2016, dated 2023)", "key": {"[1]": {"conditions": "characteristic of the pill's progestogen; cited from earlier work"}, "IKr potassium channel [2]": {"molecular_target": "T1, IKr potassium channel (Homo sapiens, UniProt Q12809)", "T1 sequence (Q12809 whole entry)": "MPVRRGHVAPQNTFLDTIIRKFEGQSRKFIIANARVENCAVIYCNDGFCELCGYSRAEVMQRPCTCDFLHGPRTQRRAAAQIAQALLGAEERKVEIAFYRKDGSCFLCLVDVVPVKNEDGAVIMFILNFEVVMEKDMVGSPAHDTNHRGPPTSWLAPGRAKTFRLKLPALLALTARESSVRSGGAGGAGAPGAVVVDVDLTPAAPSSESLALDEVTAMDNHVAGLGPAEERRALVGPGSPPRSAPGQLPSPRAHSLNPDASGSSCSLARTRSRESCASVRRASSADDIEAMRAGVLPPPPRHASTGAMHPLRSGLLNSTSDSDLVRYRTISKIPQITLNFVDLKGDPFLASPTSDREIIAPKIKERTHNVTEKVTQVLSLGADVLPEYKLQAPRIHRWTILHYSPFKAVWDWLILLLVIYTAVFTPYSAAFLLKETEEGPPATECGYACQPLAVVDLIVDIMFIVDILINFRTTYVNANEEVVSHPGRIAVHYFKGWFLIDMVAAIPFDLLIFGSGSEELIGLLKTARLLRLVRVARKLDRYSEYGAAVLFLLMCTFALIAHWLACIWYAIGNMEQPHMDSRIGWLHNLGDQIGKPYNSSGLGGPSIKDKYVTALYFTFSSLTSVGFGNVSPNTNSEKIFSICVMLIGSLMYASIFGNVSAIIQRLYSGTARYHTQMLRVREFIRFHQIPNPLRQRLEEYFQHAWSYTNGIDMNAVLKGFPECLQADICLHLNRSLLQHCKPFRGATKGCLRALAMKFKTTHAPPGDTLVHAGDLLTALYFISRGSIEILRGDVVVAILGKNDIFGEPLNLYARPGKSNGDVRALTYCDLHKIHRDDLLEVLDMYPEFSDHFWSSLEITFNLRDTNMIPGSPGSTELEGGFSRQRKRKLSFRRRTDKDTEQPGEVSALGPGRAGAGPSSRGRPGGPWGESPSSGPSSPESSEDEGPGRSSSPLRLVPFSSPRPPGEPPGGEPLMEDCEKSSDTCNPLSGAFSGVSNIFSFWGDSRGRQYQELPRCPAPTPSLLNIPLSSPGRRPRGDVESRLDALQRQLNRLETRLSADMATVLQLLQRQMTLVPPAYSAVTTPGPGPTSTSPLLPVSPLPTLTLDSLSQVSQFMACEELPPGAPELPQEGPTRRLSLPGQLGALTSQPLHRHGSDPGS", "experimental": "Statistics: ns represents p>0.1. Various tests (Chi^2 test with trend, one-way ANOVA with Tukey or Kruskal-Wallis post-test with Dunn's post-test) were used. The quantitative data are presented as a mean±standard error or median with interquartile range.\nThe PC1 value is obtained by analysis by main components of the variables ΔQTc (%), ΔTpTe (%) and ΔTAmp (%) and quantitatively reflects the IKr inhibition obtained three hours after taking sotalol.\nThe ΔQTcF, ΔTpTe and ΔTAmp were also calculated."}, "[3]": {"molecular_target": "T2, androgen receptor (NR3C4) (Homo sapiens, UniProt P10275)", "T2 sequence (P10275 1-920)": "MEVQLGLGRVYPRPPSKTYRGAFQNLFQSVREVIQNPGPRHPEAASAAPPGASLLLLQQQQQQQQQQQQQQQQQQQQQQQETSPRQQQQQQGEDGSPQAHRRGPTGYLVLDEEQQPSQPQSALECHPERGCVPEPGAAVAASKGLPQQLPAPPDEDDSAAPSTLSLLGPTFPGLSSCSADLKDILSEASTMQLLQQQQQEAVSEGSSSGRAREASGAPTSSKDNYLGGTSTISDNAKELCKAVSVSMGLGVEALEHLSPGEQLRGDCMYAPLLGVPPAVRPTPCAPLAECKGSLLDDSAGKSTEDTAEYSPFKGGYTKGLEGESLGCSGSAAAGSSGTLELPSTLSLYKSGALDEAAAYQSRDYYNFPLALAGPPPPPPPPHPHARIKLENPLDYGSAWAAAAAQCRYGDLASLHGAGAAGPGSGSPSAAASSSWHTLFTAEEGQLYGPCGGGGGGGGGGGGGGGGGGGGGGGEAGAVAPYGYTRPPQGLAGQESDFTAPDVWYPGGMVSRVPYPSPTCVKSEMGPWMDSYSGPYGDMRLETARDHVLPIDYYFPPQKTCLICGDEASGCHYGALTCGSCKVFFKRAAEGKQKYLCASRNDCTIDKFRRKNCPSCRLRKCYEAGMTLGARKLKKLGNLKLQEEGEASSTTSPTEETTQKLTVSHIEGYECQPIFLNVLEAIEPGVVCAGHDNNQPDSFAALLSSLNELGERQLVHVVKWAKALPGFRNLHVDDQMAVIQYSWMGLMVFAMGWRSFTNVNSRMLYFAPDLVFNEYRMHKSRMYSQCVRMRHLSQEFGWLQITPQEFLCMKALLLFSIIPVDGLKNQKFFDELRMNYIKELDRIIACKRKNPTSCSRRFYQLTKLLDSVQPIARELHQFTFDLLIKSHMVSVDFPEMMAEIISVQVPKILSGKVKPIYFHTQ", "conditions": "characteristic of the progestogen; cited from earlier work"}, "[4]": {"system": "transgenic rabbits with a long QT interval", "conditions": "cited from earlier work"}, "IKr potassium channel [5]": {"molecular_target": "T1, IKr potassium channel", "experiment": "ECG changes three hours after a single oral dose of 80 mg sotalol in healthy volunteers (Example 1)", "type": "in vivo", "parameters": "from tissue; host or cells: heart of living human volunteers (in vivo ECG)", "conditions": "for decrease in TAmp / increase in TpTe: H3 after 80 mg sotalol vs basal; for subjects exhibiting a double peak (notch) / subjects exhibiting a double peak (notch), proportion: after 80 mg sotalol", "experimental": "Results obtained on a cohort of 995 volunteers in good health, from 18 to 60 years old, of European or North African origin, were used for the development of a marker representative of inhibition of the IKr potassium channel.\nBriefly, the electrocardiogram (ECG) of the patients (each one in triplicate, for 10 seconds) was recorded after 10 minutes at rest lying on their back. A single oral dose of 80 mg of sotalol was then given to the patients and the ECG monitoring was continued. Three hours after the sotalol had been taken, the ECG was again recorded (in triplicate) after the subjects had remained lying on their back for 10 minutes.\nThe QTcF (QT corrected using Fridericia's formula), TpTe (interval between the first peak and the end of the T wave), TAmp (amplitude of the first peak of the T wave) and the presence of double peaks in the T wave (called notches) were quantified. The Fridericia correction (QTcF) was used to correct the QT with respect to the heart rate, in accordance with the ICH guidelines E14.\nTpTe was measured using the tangent method, in triplicate, on a representative heart beat (averaged representation of an ECG of 10 seconds) on the V3, V4 and V5 derivations. In the event of a double peak of the T wave (notch), the peak taken into consideration was the first peak, even if the amplitude of the T wave was smaller for this peak. The average value obtained was retained. In the event of it being impossible to measure TpTe on V3, V4 or V5, the measurement was instead carried out on V2 (for V3), or V6 (for V4/V5).\nIn order to measure TAmp, positioning was on the site of the maximum amplitude of the first peak of the T wave on a representative beat (averaged representation of an ECG of 10 seconds) on the DII, V2 and V3 leads. The average of the TAmp values resulting from these three leads, and measured on three different ECGs of 10 seconds (in triplicate), was calculated and retained. If it was not possible to measure a TAmp on one of these leads (in particular because of a low value (<0.1 mV)), the V4 lead was used.\nQTcF was measured using the tangent method on the DII lead for three consecutive beats and the average value of an evaluation in triplicate was retained.\nFor these parameters, the difference between the value obtained at H3 and the basal value was measured. This difference was expressed as percentage relative to the basal value, and the calculations were carried out such that the value calculated is positive.\nThe following calculations were therefore carried out: ΔQTcF (%)=(QTcF at H3−QTcF basal)/(QTcF basal)×100 ΔTpTe (%)=(TpTe at H3−TpTe basal)/(TpTe basal)×100 ΔTAmp (%)=(TAmp basal−TAmp at H3)/(TAmp basal)×100\nIn order to evaluate the double peaks (notches), all the ECGs were evaluated independently by two investigators. The patients were described as notchers or non-notchers, in the event of agreements between the two investigators.\nThe statistical analyses were carried out with the R software (https://www.r-project.org/)."}, "torsades de pointes": {"system": "torsades de pointes", "experiment": "Clinical case: testosterone in a person with hypogonadism and arrhythmic storm on torsades de pointes (Example 3)", "type": "in vivo, human", "experimental": "Peripheral hypogonadism was identified in a person suffering from ischemic cardiopathy and from Erdheim-Chester disease with arrhythmic storm on torsades de pointes with long QT and notching (double peak (notch) of the T wave) promoted by iatrogenesis and bradycardia with more than seven episodes in less than one week.\nTestosterone (Androtardyl, testosterone enantate 250 mg/ml) was administered to the patient in amounts which made it possible to maintain a testosterone level making it possible to correct their hypogonadism, the bradycardia was corrected and an implantable defibrillator was implanted as secondary prevention."}, "[6]": {"conditions": "three hours after 80 mg sotalol, difference between groups (FIG. 3)"}, "[7]": {"conditions": "first of the two cohorts (exploration)"}, "[8]": {"conditions": "second of the two cohorts (replication)"}, "[9]": {"conditions": "three hours after single oral dose of 80 mg sotalol vs basal"}}, "note": "Read-outs that look alike come from different tables or passages of the source."}
{"smiles": "C#C[C@]1(O)CC[C@H]2[C@@H]3CCC4=CCCC[C@@H]4[C@H]3C(=C)C[C@@]21CC", "note": "[desogestrel]", "values": [{"measurement": "Progestogenic activity", "setting": "[1]", "value": "High"}, {"measurement": "incidence of double peaks (notches)", "setting": "IKr potassium channel [2]; female, human, in vivo, 3 h", "value": 7.3, "unit": "%"}, {"measurement": "effect with regard to the appearance of a double peak (notch) of the T wave", "setting": "IKr potassium channel [2]; in vivo", "value": "protective"}, {"measurement": "risk of drug-induced IKr inhibition", "setting": "IKr potassium channel [2]; in vivo", "value": "neutral"}]}
{"smiles": "C[C@]12CCC3=C4CCC(=O)C=C4CC[C@H]3[C@@H]1CC[C@@]2(O)CC#N", "note": "[dienogest]", "values": [{"measurement": "Androgenicity", "setting": "[3]", "value": "low androgenic activity, or even an anti-androgenic activity"}]}
{"smiles": "C[C@]12CCC(=O)C=C1[C@@H]1C[C@@H]1[C@H]1[C@@H]3[C@@H]4C[C@@H]4[C@@]4(CCC(=O)O4)[C@@]3(C)CC[C@@H]12", "note": "[drospirenone]", "values": [{"measurement": "Progestogenic activity", "setting": "[1]", "value": "Intermediate"}, {"measurement": "risk of drug-induced IKr inhibition", "setting": "IKr potassium channel [2]; conclusion in words, by pill type", "value": "greatest risk"}, {"measurement": "increase in QTcF greater than that of patients taking levonorgestrel", "setting": "IKr potassium channel [2]; [6]", "value": "7.0 ± 2.7", "unit": "ms"}, {"measurement": "increase in QTcF greater than that of patients without hormonal contraception", "setting": "IKr potassium channel [2]; [6]", "value": "6.6 ± 2.6", "unit": "ms"}, {"measurement": "incidence of double peaks (notches)", "setting": "IKr potassium channel [2]; three hours after administration of Sotalol, by pill type (FIG. 4)", "value": 25.8, "unit": "%"}]}
{"smiles": "C#C[C@]1(O)C=C[C@H]2[C@@H]3CCC4=CC(=O)CC[C@@H]4[C@H]3CC[C@@]21CC", "note": "[gestodene]", "values": [{"measurement": "Androgenicity", "setting": "[3]", "value": "Intermediate/variable"}, {"measurement": "Progestogenic activity", "setting": "[1]", "value": "High"}, {"measurement": "incidence of double peaks (notches)", "setting": "IKr potassium channel [2]; female, human, in vivo, 3 h", "value": 23.5, "unit": "%"}]}
{"smiles": "C#C[C@]1(O)CC[C@H]2[C@@H]3CCC4=CC(=O)CC[C@@H]4[C@H]3CC[C@@]21CC", "note": "[levonorgestrel]", "values": [{"measurement": "Progestogenic activity", "setting": "[1]", "value": "High"}, {"measurement": "effect with regard to the increase in QT", "setting": "IKr potassium channel [2]; conclusion in words", "value": "protective"}, {"measurement": "incidence of double peaks (notches)", "setting": "IKr potassium channel [2]; female, human, in vivo, 3 h", "value": 16.4, "unit": "%"}, {"measurement": "risk of drug-induced IKr inhibition", "setting": "IKr potassium channel [2]; in vivo", "value": "neutral"}]}
{"smiles": "CC(=O)[C@H]1CC[C@H]2[C@@H]3CCC4=CC(=O)CC[C@]4(C)[C@H]3CC[C@]12C", "note": "[progesterone]", "values": [{"measurement": "effect on sudden death", "setting": "[4]", "value": "protective effect"}]}
{"smiles": "CC(C)NCC(O)c1ccc(NS(C)(=O)=O)cc1", "note": "(centres unmarked) [sotalol]", "values": [{"measurement": "decrease in TAmp", "setting": "IKr potassium channel [5]; exploration cohort", "value": "13.6±15.7", "unit": "%"}, {"measurement": "increase in TpTe", "setting": "IKr potassium channel [5]; exploration cohort", "value": "14.2±15.6", "unit": "%"}, {"measurement": "subjects exhibiting a double peak (notch)", "setting": "IKr potassium channel [5]; [7]", "value": 40, "unit": "subjects"}, {"measurement": "subjects exhibiting a double peak (notch), proportion", "setting": "IKr potassium channel [5]; [7]", "value": 8, "unit": "%"}, {"measurement": "PC1 value", "setting": "IKr potassium channel [5]; non-notchers, exploration cohort", "value": "0.3±1.1"}, {"measurement": "PC1 value", "setting": "IKr potassium channel [5]; non-notchers, replication cohort", "value": "0.3±1.1"}, {"measurement": "PC1 value", "setting": "IKr potassium channel [5]; notchers, exploration cohort, PC1 correlates negatively with ΔQTc, ΔTAmp, ΔTpTe", "value": "−2.5±1.5"}, {"measurement": "PC1 value", "setting": "IKr potassium channel [5]; notchers, replication cohort", "value": "−2.3±1.8"}, {"measurement": "decrease in TAmp", "setting": "IKr potassium channel [5]; replication cohort", "value": "12.8±15.3", "unit": "%"}, {"measurement": "increase in TpTe", "setting": "IKr potassium channel [5]; replication cohort", "value": "15.9±20.5", "unit": "%"}, {"measurement": "subjects exhibiting a double peak (notch)", "setting": "IKr potassium channel [5]; [8]", "value": 51, "unit": "subjects"}, {"measurement": "subjects exhibiting a double peak (notch), proportion", "setting": "IKr potassium channel [5]; [8]", "value": 10, "unit": "%"}, {"measurement": "absolute change in the duration of QTcF", "setting": "IKr potassium channel [5]; [9]", "value": "21.4 ± 14", "unit": "ms"}, {"measurement": "relative change in the duration of QTcF", "setting": "IKr potassium channel [5]; [9]", "value": "5.5±3.5", "unit": "%"}, {"measurement": "average QTc increase observed with sotalol", "setting": "IKr potassium channel [2]; study of the present application, as summarised", "value": 20, "unit": "ms"}]}
{"smiles": "CCCCCCC(=O)O[C@H]1CC[C@H]2[C@@H]3CCC4=CC(=O)CC[C@]4(C)[C@H]3CC[C@]12C", "note": "[testosterone, testosterone enantate]", "values": [{"measurement": "repolarization", "setting": "torsades de pointes; following the introduction of testosterone, one patient", "value": "normalized"}, {"measurement": "recurrence of torsades de pointes (defibrillator monitoring)", "setting": "torsades de pointes; three months following the introduction of testosterone, despite reintroduction of QTc-prolonging drug (Vemurafenob)", "value": "absence of recurrence of torsades de pointes"}]}
